SMILES strings stand for the structures.

The target in one data set is T1, HIV-integrase (Human immunodeficiency virus type 1 group M subtype B, UniProt P04585).
T1 construct: Recombinant integrase (0.26 ng) was incubated with the beads
Nature of the data set: in-vitro activity against HIV-integrase (HIV Integrase Inhibition, SPA bead assay). Type of data set: biochemical. Particulars: Table 1a; recombinant integrase, activity class. Summed up: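 Recombinant integrase (0.26 ng) pre-bound for 90 min at 37 °C to biotinylated substrate DNA on streptavidin SPA beads, then washed. Inhibitors added with 33P-labelled target DNA; reaction stopped with 10 mM EDTA. Scintillation CPM taken as integration signal.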

On to `CNC(=O)c1cc(F)ccc1CNC(=O)c1nc2n(c(=O)c1O)CCCOC21CCOCC1` [Example 115, Spiro[4H-pyran-4,10′(4′H)-[6H]pyrimido[2,1-c][1,4]oxazepine]-2′-carboxamide, N-[[4-fluoro-2-[(methylamino)carbonyl]phenyl]methyl]-2,3,5,6,7′,8′-hexahydro-3′-hydroxy-4′-oxo-], for which the melting point is 211 °C (dec.). Moreover, the half-maximal inhibitory concentration (IC50) at HIV-integrase lay within 1 to 10 nM.

Regarding `CS(=O)(=O)c1cc(F)ccc1CNC(=O)c1nc2n(c(=O)c1O)CCCOC21CCOCC1` [Example 116, Spiro[4H-pyran-4,10′(4′H)-[6H]pyrimido[2,1-c][1,4]oxazepine]-2′-carboxamide, N-[[4-fluoro-2-(methylsulfonyl)phenyl]methyl]-2,3,5,6,7′,8′-hexahydro-3′-hydroxy-4′-oxo-], the melting point is 257 °C (dec.). Besides, the IC50 at HIV-integrase fell in the range of 10 to 100 nM. Consider `COP(=O)(OC)c1cc(F)ccc1CNC(=O)c1nc2n(c(=O)c1O)CCCOC21CCOCC1` [Example 117, Phosphonic acid, [5-fluoro-2-[[[(2,3,5,6,7′,8′-hexahydro-3′-hydroxy-4′-oxospiro[4H-pyran-4,10′(4′H) -[6H]pyrimido[2,1-c][1,4]oxazepin]-2′-yl)carbonyl]amino]methyl]phenyl]-, dimethyl ester], for which the melting point was 234 °C (dec.). Further, the IC50 on HIV-integrase was in the range of 10 to 100 nM. With `O=C(NCc1ccc(F)cc1-n1cncn1)c1nc2n(c(=O)c1O)CCCOC21CCOCC1` [Example 118, Spiro[4H-pyran-4,10′(4′H)-[6H]pyrimido[2,1-c][1,4]oxazepine]-2′-carboxamide, N-[[4-fluoro-2-(1H-1,2,4-triazol-1-yl)phenyl]methyl]-2,3,5,6,7′,8′-hexahydro-3′-hydroxy-4′-oxo-], the melting point is 247 °C (dec.). The IC50 on HIV-integrase lay within 1 to 10 nM. As to `Cc1ncn(-c2cc(F)ccc2CNC(=O)c2nc3n(c(=O)c2O)CCCOC32CCOCC2)n1` [Example 119, Spiro[4H-pyran-4,10′(4′H)-[6H]pyrimido[2,1-c][1,4]oxazepine]-2′-carboxamide, N-[[4-fluoro-2-(3-methyl-1H-1,2,4-triazol-1-yl)phenyl]methyl]-2,3,5,6,7′,8′-hexahydro-3′-hydroxy-4′-oxo-], the melting point is 240 °C (dec.). Further, the IC50 on HIV-integrase was 1 to 10 nM.

Compound `Cc1ncnn1-c1cc(F)ccc1CNC(=O)c1nc2n(c(=O)c1O)CCCOC21CCOCC1` [Example 120, Spiro[4H-pyran-4,10′(4′H)-[6H]pyrimido[2,1-c][1,4]oxazepine]-2′-carboxamide, N-[[4-fluoro-2-(5-methyl-1H-1,2,4-triazol-1-yl)phenyl]methyl]-2,3,5,6,7′,8′-hexahydro-3′-hydroxy-4′-oxo-] returned a melting point of 204 °C. For the same compound, the IC50 on HIV-integrase lay within 10 to 100 nM. Consider `Cc1ncn(-c2ccccc2CNC(=O)c2nc3n(c(=O)c2O)CCCOC32CCOCC2)n1` [Example 121, Spiro[4H-pyran-4,10′(4′H)-[6H]pyrimido[2,1-c][1,4]oxazepine]-2′-carboxamide, 2,3,5,6,7,8′-hexahydro-3′-hydroxy-N-[[2-(3-methyl-1H-1,2,4-triazol-1-yl)phenyl]methyl]-4′-oxo-], for which the melting point was 247 °C (dec.). Also, the IC50 on HIV-integrase lay within 10 to 100 nM. Turning to `O=C(NCc1ccc(F)cc1-n1ccnn1)c1nc2n(c(=O)c1O)CCCOC21CCOCC1` [Example 122, Spiro[4H-pyran-4,10′(4′H)-[6H]pyrimido[2,1-c][1,4]oxazepine]-2′-carboxamide, N-[[4-fluoro-2-(1H-1,2,3-triazol-1-yl)phenyl]methyl]-2,3,5,6,7′,8′-hexahydro-3′-hydroxy-4′-oxo-], the melting point was 239 °C (dec.). For the same compound, the IC50 at HIV-integrase was 1 to 10 nM. For the compound `Cc1nc(C)n(-c2cc(F)ccc2CNC(=O)c2nc3n(c(=O)c2O)CCCOC32CCC2)n1` [Example 128, Spiro[cyclobutane-1,10′(4′H)-[6H]pyrimido[2,1-c][1,4]oxazepine]-2′-carboxamide, N-[[2-(3,5-dimethyl-1H-1,2,4-triazol-1-yl)-4-fluorophenyl]methyl]-7′,8′-dihydro-3′-hydroxy-4′-oxo-], the IC50 on HIV-integrase is 10 to 100 nM.

As for `Cc1ncn(-c2cc(F)ccc2CNC(=O)c2nc3n(c(=O)c2O)CCOC32CCCC2)n1` [Example 129, Spiro[cyclopentane-1,9′(4′H)-pyrimido[2,1-c][1,4]oxazine]-2′-carboxamide, N-[[4-fluoro-2-(3-methyl-1H-1,2,4-triazol-1-yl)phenyl]methyl]-6′,7′-dihydro-3′-hydroxy-4′-oxo-], the IC50 at HIV-integrase lay within 1 to 10 nM. `Cc1nc(C)n(-c2cc(F)ccc2CNC(=O)c2nc3n(c(=O)c2O)CCOC32CCCC2)n1` [Example 130, Spiro[cyclopentane-1,9′(4′H)-pyrimido[2,1-c][1,4]oxazine]-2′-carboxamide, N-[[2-(3,5-dimethyl-1H-1,2,4-triazol-1-yl)-4-fluorophenyl]methyl]-6′,7′-dihydro-3′-hydroxy-4′-oxo-]: the IC50 on HIV-integrase was in the range of 1 to 10 nM. The same measure, in the same setting: the same measure for `O=C(NCc1ccc(F)cc1-n1cncn1)c1nc2n(c(=O)c1O)CCNC21CCC1` [Example 131]: 1 to 10 nM; for `O=C(NCc1ccc(F)cc1)c1nc2n(c(=O)c1O)CCNC21CCC1` [Example 132, Spiro[cyclobutane-1,9′(6′H)-[4H]pyrazino[1,2-a]pyrimidine]-2′-carboxamide, N-[(4-fluorophenyl)methyl]-7′,8′-dihydro-3′-hydroxy-4′-oxo-]: 1 to 10 nM.

Broadly, the IC50 is the concentration that gives 50% inhibition. As usually defined, the melting point is the temperature of the solid-liquid transition.
